Measurements: patent publication US8785503B2, “Biphenyl compound or pharmaceutically acceptable salt thereof, method for preparing novel biphenyl compound or pharmaceutically acceptable salt thereof, and pharmaceutical composition containing same as active ingredient for preventing or treating diabetes complications” (Korea Institute of Oriental Medicine, priority 2010, dated 2014)

Assays:
[1] = system: diabetic retinopathy-induced retina; assay: Diabetic retinopathy-induced (intravitreal BSA-AGE) rat model: FITC-dextran retinal vessels, retina Western blot; assay type: in vivo, Sprague Dawley (SD) white rats
Protocol: To determine the therapeutic effect of the compound of the present invention on retina, to which diabetic retinopathy, one example of diabetic complications, was induced, the following experiment was carried out. Sprague Dawley (SD) white rats (6 weeks) were obtained from Daehan Biolink Co. and acclimated for 7 days to the animal room. SD rats were divided into normal group, diabetic group, experimental group, and control group. The animal room was maintained under the following conditions: temperature 23° C.; humidity 40-60%; and 12 h light-dark cycle. Feeds for experimental animals and drinking water were provided without limitation. All experiments were carried out in accordance with Standard Operation Procedures (SOP) by Institutional Animal Care and Use Committee (IACUC). SD rats were anesthetized by an intraperitoneal injection of 5 mg/mL of Zoletil and 5 mg/mL of Rompun. 20 mg/mL of BSA-AGE alone for normal group and diabetic group and both 20 mg/mL of BSA-AGE and a drug for experimental group and control group were injected via Hamilton syringes and needles to eyes. At this time, the needle was introduced into the sclera, 3 mm away from the corneal limbus, and after confirming that the end of the needle was located in the vitreous cavity, administration was carried out. After 24 hours, eyes were removed. The compound of Chemical Formula 1 obtained from Example 1 was used for the drug. A mixture of the same amount of Zoletil and Rompun was intraperitoneally injected to anesthetize animals. Hearts were obtained by opening abdominal cavity and thoracic cavity. 1 mL of fluorescent isothiocyanate dextran (FITC-dextran, Sigma, St. Louis, Mo., USA) which was prepared by dissolving […] of FITC-dextran in 1 mL of sterile physiological saline was injected into the left ventricle. After 10 minutes, eyes were removed and separated from eyecups. Left eyes were incised in four directions and placed onto a slide glass. After mounting, left eyes were observed by a fluorescent microscope. For right eyes, only retina was separated from the eye and rapidly frozen in liquid nitrogen and stored at −70° C. To prepare BSA-AGE, 30 mM glucose (Sigma, St. Louis, Mo., USA) and 20 mg/mL of BSA (Roche, Germany) were added to sodium phosphate buffer (100 mM, pH 7.4) and cultured at 37° C. for 50 days. After 50 days, BSA-AGE was injected into PD-10 column and the remaining glucose was removed by dialysis and only pure BSA-AGE was obtained. Purified BSA-AGE was aliquoted and stored at −70° C. to use. Retina stored at −70° C. was homogenized with homogenization buffer (pH 7.6). Protein quantification was carried out by Lowry's principle and SDS-PAGE electrophoresis was carried out for each […]. Migrated proteins in a gel were immobilized onto a nitrocellulose membrane and transferred to the membrane at 100 V, 250 mA for 1.5 hours. Antibodies to be quantified were immunoabsorbed to the adsorbed proteins and color was developed using an enhanced-chemiluminescence (ECL) solution. Protein expression was determined by measuring the density with Scion image analysis program.

retinal angiogenesis = assay: Oxygen induced retinopathy (OIR) mouse model: FITC-dextran, isolectin-B4 staining, retina Western blot; assay type: in vivo, mice (C58BL/6)
Protocol: To determine the inhibitory effect of the compound of Chemical Formula 1 of the present invention on retinal angiogenesis, the following experiment was carried out. Experimental animals were mice born after crossbreeding 7-8-week-old C58BL/6. On 7th day after birth, mice (P7) were placed into an oxygen chamber and 75% of the oxygen concentration was maintained in the chamber for five days (P7-P11). 12-hour cyclic illumination was maintained in the animal room. Temperature was maintained at 24° C. Animals were allowed to access freely to feeds and drinking water. At an ambient atmosphere, the drug was intraperitoneally injected each day for five days (P12-P16). On 17th day after birth, 30 mg/kg of Zoletil (Zoletil 50, Virbac) and 10 mg/kg of Rompun (Bayer Korea) were mixed at a ratio of 3:2 and 10-fold diluted in physiological saline and 50 μL was intraperitoneally injected to anesthetize animals. After laparotomy, 100 μL of 50 mg/mL of FITC-dextran (Sigma, St. Louis, Mo., USA) dissolved in PBS was injected to a heart. When the heart stopped, eyes were removed. Retina was separated from one eye and stored at −70° C. The other eye was fixed using 4% paraformaldehyde for 10 min. After separation of retina, thin fixed retina slide was prepared and observed using a fluorescence microscope (BX51, Olympus, Japan). Retina was fixed in 4% paraformaldehyde for 3 hours, and washed with PBS, and then agitated in PBS containing triton X-100 and 1% bovine serum albumin for 3 hours. Retina was washed again and 1 mg/mL of isolectin-B4 (L2140, Sigma) was diluted in PBS to 1:50 and retina was agitated with isolectin-B4 at 4° C. for overnight. After washing the retina with PBS containing 0.05% Tween 20 for 2 hours, streptavidin-TRITC was diluted to 1:500 and allowed to react with retina at 37° C. for 4 hours. Then, retina was washed with PBS for 30 min and observed using a fluorescence microscope (BX51, Olympus, Japan). Retina stored at −70° C. was homogenized with homogenization buffer (pH 7.6). Protein quantification was carried out by Lowry's principle and SDS-PAGE electrophoresis was carried out for each 30 μg. Migrated proteins in a gel were immobilized onto a nitrocellulose membrane and transferred to the membrane at 100 V, 250 mA for 1.5 hours. Antibodies to be quantified were immunoabsorbed to the adsorbed proteins and color was developed using an enhanced-chemiluminescence (ECL) solution. Protein expression was determined by measuring the density with Scion image analysis program.

AGE formation = assay: Inhibitory effect on AGE formation (BSA with fructose and glucose, fluorescence Ex 350 nm / Em 450 nm); assay type: biochemical, bovine; details: for Inhibitory effect / IC50: 7 days
Protocol: To determine the inhibitory effect of the compound of Chemical Formula 1 according to the present invention on formation of AGE, which are an indicator of diabetic complications and indicator of treatment efficiency assessment, the following experiment was carried out.
Bovine serum albumin (BSA) was used as a protein and the degree of binding to fructose and glucose was used as an indicator. Aminoguanidine, which is known to have very excellent inhibitory effect on AGE, was used as a positive control.
Bovine serum albumin (hereinafter, referred to as BSA; Sigma, U.S.A.) was used as a protein source. BSA was added to 50 mM phosphate buffer (pH 7.4) to be a concentration of 10 mg/mL. A mixed solution of 0.2 M fructose and 0.2 M glucose was used as a sugar source. The mixed solution of fructose and glucose was added to the prepared BSA solution. 2.5, 5 and 10 μg/mL of the compound of Chemical Formula 1 obtained from Example 1 were prepared (All compounds were dissolved in DMSO and 15% tween 80 was added thereto. Total amount of DMSO was 0.2%). The compound was added to the mixed solution of BSA and sugars and the mixture was cultured at 37° C. for 7 days.
At this time, 0.02% sodium azide and anticomycotics were added as an antibacterial agent and antifungal agents. A control was the cultured mixture of BSA and sugars. Blanks for the control and experimental group were those that were prepared but non-cultured. Aminoguanidine was used for a positive control, the indicator for comparing the effectiveness. All cultures were prepared in quadruplicate to avoid error as much as possible.
After 7 days, the amount of AGE produced from each culture was analyzed and the result was shown. AGE has fluorescence, brown color, and a physicochemical property capable of cross-linking and has ligands which cell membrane receptors can recognize. The amount of AGE having those characteristics was measured by a microplate reader (Excitation: 350 nm, Emission: 450 nm) to analyze the inhibition degree of formation (Vinson, J. A. et al., J. Nutr. Biochem., 7: 659-663, 1996), and the inhibition rate of formation was calculated using the following Equation 1.
Aminoguanidine was used for the positive control. Aminoguanidine was dissolved in distilled water and 37, 55.6. and 74 μg/mL of aminoguanidine were cultured for 7 days as described above. After 7 days, the amount of AGE produced from culture was measured by a microplate reader (Excitation: 350 nm, Emission: 450 nm).

[2] = across doses, vs. diabetic group
[3] = 100 mg/kg, intraperitoneal P12-P16
[4] = across doses, intraperitoneal P12-P16

COc1cc(O)cc(-c2ccc(O)c(O)c2)c1 [Compound of Chemical Formula 1]
Changes in occludin (retina, Western blot) ([1]; 100 μM, p<0.05 vs. AGE-BSA): significant increase | Changes in the angiogenic growth factor (retina, Western blot) ([1]; 100 μM, p<0.05 vs. AGE-BSA): significant decrease | Changes in occludin (retina, Western blot) ([1]; 150 μM, p<0.05 vs. AGE-BSA): significant increase | Changes in the angiogenic growth factor (retina, Western blot) ([1]; 150 μM, p<0.05 vs. AGE-BSA): significant decrease | Changes in occludin (retina, Western blot) [1, 2]: dose-dependent increase | Changes in the angiogenic growth factor (retina, Western blot) [1, 2]: dose-dependent decrease | angiogenesis (isolectin-B4 staining) (retinal angiogenesis; [3]): significantly inhibited | avascular area (FITC-dextran) (retinal angiogenesis; [3]): significantly reduced | increase in length by vascular tortuosity (retinal angiogenesis; [3]): reduced | Changes in the angiogenic growth factor (retina, Western blot) (retinal angiogenesis; 100 mg/kg, p<0.05 vs. OIR): significant decrease | neovascular tufts (isolectin-B4 staining) (retinal angiogenesis; [4]): ameliorated in a dose-dependent manner | vascular tortuosity (FITC-dextran) (retinal angiogenesis; [4]): ameliorated in a dose-dependent manner | Changes in the angiogenic growth factor (retina, Western blot) (retinal angiogenesis; across doses, vs. OIR group): dose-dependent decrease | Inhibitory effect (AGE formation; 2.5 μg/mL): 4.25 ± 5.38% | Inhibitory effect (AGE formation; 5 μg/mL): 17.16 ± 5.86% | Inhibitory effect (AGE formation; 10 μg/mL): 54.17 ± 6.02% | IC50 (AGE formation): 41 ± 3.78 µM | inhibitory effect on AGE formation relative to aminoguanidine (AGE formation; ratio of IC50 values, greater than control): 26 times

N=C(N)NN [Aminoguanidine, reference compound]
Inhibitory effect (AGE formation; 37 μg/mL): 44.53 ± 2.33% | Inhibitory effect (AGE formation; 55.5 μg/mL): 49.97 ± 0.59% | Inhibitory effect (AGE formation; 74 μg/mL): 56.37 ± 0.67% | IC50 (AGE formation): 1060 ± 57.2 µM
